The results in this text go back to ChEMBL document CHEMBL2057118, “Synthesis and biological evaluation of novel 2,4,6-triazine derivatives as antimicrobial agents” (2012).

Assay type in all cases: functional
The test system of experiment [1] is Aspergillus niger. In words: Antifungal activity against Aspergillus niger MTCC 1781 after 2 to 3 days by agar well diffusion method. As to IZ: test concentration or dose not given here. The settings on record: for MIC: Aspergillus niger, MTCC 1781.
The test system of experiment [2] is Escherichia coli. The experiment is described as follows: Antimicrobial activity against Escherichia coli MTCC 1650 after 24 hrs by agar well diffusion method. As to IZ: test concentration or dose not given here. Conditions: for MIC: Escherichia coli, MTCC 1650, 24 h.
The test system of experiment [3] is Candida albicans. In words: Antifungal activity against Candida albicans MTCC 227 after 2 to 3 days by agar well diffusion method. As to IZ: test concentration or dose not given here. The settings on record: for MIC: Candida albicans, MTCC 227.
Experiment [4] deals with Staphylococcus aureus. In words: Antimicrobial activity against Staphylococcus aureus MTCC 96 after 24 hrs by agar well diffusion method. As to IZ: test concentration or dose not given here. Conditions: for MIC: Staphylococcus aureus, MTCC 96, 24 h.
Experiment [5] has as its system Pseudomonas aeruginosa. In words: Antimicrobial activity against Pseudomonas aeruginosa MTCC 1688 after 24 hrs by agar well diffusion method. As to IZ: test concentration or dose not given here. The settings on record: for MIC: Pseudomonas aeruginosa, MTCC 1688, 24 h.
The test system of experiment [6] is Bacillus subtilis. The experiment is described as follows: Antimicrobial activity against Bacillus subtilis MTCC 441 after 24 hrs by agar well diffusion method. As to IZ: test concentration or dose not given here. Conditions: for MIC: Bacillus subtilis, MTCC 441, 24 h.

Molecules are shown by their SMILES.

On to `Cl.N#Cc1ccc(Nc2nc(NCCN3CCOCC3)nc(NCCN3CCOCC3)n2)cn1`, for which the “inhibition zone (IZ)” value in experiment [1] is on record as 14 mm; in experiment [2] it was 14 mm; in experiment [3] it was 12 mm; in experiment [4], 12 mm; in experiment [5], 12 mm; in experiment [6] it was 10 mm. The MIC in experiment [1] is 50 µg/mL; in experiment [2], 25 µg/mL; in experiment [3], 25 µg/mL; in experiment [4], 50 µg/mL; in experiment [5] it was 25 µg/mL; in experiment [6], 25 µg/mL.

In the case of `CN1CCN(c2nc(Nc3ccc(C#N)nc3)nc(N3CCN(C)CC3)n2)CC1.Cl`, the “inhibition zone (IZ)” value in experiment [1] was 12 mm; in experiment [2], 12 mm; in experiment [3] it was 10 mm; in experiment [4], 12 mm; in experiment [5], 10 mm; in experiment [6] it was 12 mm. The MIC was found to be 50 µg/mL in experiment [1]; 12.5 µg/mL in experiment [2]; 50 µg/mL in experiment [3]; 12.5 µg/mL in experiment [4]; 12.5 µg/mL in experiment [5]; 12.5 µg/mL in experiment [6].

As for `COc1cccc(Nc2nc(Nc3ccc(C#N)nc3)nc(Nc3cccc(OC)c3)n2)c1.Cl`, the “inhibition zone (IZ)” value in experiment [1] is listed as 12 mm; in experiment [2], 14 mm; in experiment [3], 12 mm; in experiment [4], 12 mm; in experiment [5], 12 mm; in experiment [6], 10 mm. Besides, the MIC was 25 µg/mL in experiment [1]; 6.25 µg/mL in experiment [2]; 25 µg/mL in experiment [3]; 6.25 µg/mL in experiment [4]; 12.5 µg/mL in experiment [5]; 12.5 µg/mL in experiment [6].
